Results published in patent US20040219100A1, “Composition useful for the treatment of tumors” (priority 2003, published 2004).

Test system: JJ5 Breast Cancer cells
Test: Kinetics of binding and retention of radioactivity by the cells
Assay type: cell-based, human
From the text: Breast cancer cells express up to 100-fold higher levels of EGFR than do normal epithelial tissues. EGFR expression in breast cancer bone metastasis biopsies ranged from 1-1300 fmol/mg membrane protein (approximately 400-1,000,000 receptors/cell) and was associated with high relapse rates and poor long term survival. Normal epithelial cells express <10^4 receptors/cell. For the normal breast cell line HBL-100, 8000 EGFR/cell has been reported. The expression of EGFR in breast cancer cell lines has a reported range of 800 EGFR/cell for MCF-7 cells to 10^6 EGFR/cell for MDA-MB-468 cells. […] Utilizing the Auger electron emitter ^111In was used in the initial experiments to illustrate the utility of the invention using EGF-^111In-labeled transferrin compounds. […] The cell pellet was separated from the supernatant and counted in a g-scintillation counter to determine bound (B) and free (F) radioactivity. Non-specific binding was determined by conducting the assay in 100 nM hEGF. […] Internalized fraction was measured by determining the proportion of radioactivity which could not be displaced from the cell surface by 100 nM hEGF. Cell-associated binding (surface-binding and intracellular accumulation) was expressed as a percentage of medium radioactivity bound per mg of cell study protein.

EGF-^111In-labeled transferrin compound: human epidermal growth factor (EGF) operatively linked (peptide or PEG linker, biotin-streptavidin) to 111In-radiolabeled human transferrin
retained by the breast cancer cells (37° C., JJ5 cells): at least 24 hours
111In radioactivity lost from the cells in vitro (over a 24 hour period at 37° C.): < 8%
